Read-outs that look alike come from different tables or passages of the source.
Columns and labels:
[1] = Product quantum yield determination for photochemical leaving group expulsion at 390 nm; assay type: physicochemical; details: for quantum yield Φ for formation of 27: 2.0×10^−3 M acid in N2 saturated 75% aq buffer in CH3CN; for product quantum yield Φ: N2 saturated 19% H2O in dioxane containing 100 mM buffer (1.8×10^−3 M for 8; similar conditions for 7), products quantified by NMR
Method: (§1) For the ester ε=5600 M^−1 cm^−1, while the acid has ε=4200 M^−1 cm^−1. For preparative photolyses Pyrex-filtered light from a Hanovia medium pressure mercury lamp was used. A sunlamp was also effective at photolysing all of the compounds in the study. Quantum yields were determined at 390 nm using a monochromator for wavelength selection utilizing a high pressure mercury lamp as the light source.
A semi-micro optical bench was used for quantum yield determinations, similar to the apparatus described by Zimmerman.^32 Light from a 200 W high-pressure mercury lamp was passed through an Oriel monochromator, which was set to 390 nm wavelengths. The light was collimated through a lens. A fraction of the light was diverted 90° by a beam splitter to a 10×3.6 cm side quartz cylindrical cell containing an actinometer. The photolysate was contained in a 10×1.8 cm quartz cylindrical cell of 25 mL volume. The concentrations of the reactants were 0.0018-0.0030 M. All quantum yields reported herein were the average of two or more independent runs. Behind the photolysate was mounted a quartz cylindrical cell containing 25 mL of actinometer. Light output was monitored by ferrioxalate actinometery using the splitting ratio technique.
For 7 (LG^−=Cl^−), 8 (LG^−=Cl^−), and 10 (LG^−=Cl^−) 50 mL of water was added to the photolysate, and the diluted photolysate was extracted four times with 30 mL of CH2Cl2. The combined extracts were washed twice with 30 mL water, brine, and concentrated in vacuo. The residue was dissolved in d6-DMSO. DMF was added as a standard for NMR analyses (vide infra). However, for 7 (LG^−=Cl^−) the NMR solvent was CDCl3 and the NMR standard was DMSO.
For 9 (LG^−=Cl^−, PhS^−, HS^−, PhCH2S^−) the photolysate was adjusted to pH 2 by addition of 3 N HCl. The resultant precipitate was collected by suction filtration and washed with 50 mL water. The precipitate was transferred to a flask, and any untransferred precipitate was dissolved in DMSO and combined with the transferred precipitate. The DMSO was evaporated to dryness under vacuum and DMSO-d6 was added along with DMF as a standard for NMR analysis.
Products were analyzed by ^1H NMR spectroscopy using DMF or DMSO as the internal standard and conversions were 12-16%. At the concentrations used most of the incident light would have been absorbed near the front face of the photolysis cell, raising the concern that the photoproducts formed during the photolyses could competitively absorb the incident light, reducing the light absorbed by the reactants. This internal filter effect would depress the observed Φ values below the actual values. In the case of 8 (LG^−=Cl^−) the Φ was thus redetermined at an 18-fold lower concentration of 1.0×10^−4 M of reactant and found to be within experimental error of the value obtained at higher concentration at 14% conversions for duplicate runs. Due to the very low concentrations of the photoproduct 26 formed, it had to be quantified by absorption spectroscopy of the exposed photolysates without any workup. The product absorption at 432 nm was deconvoluted from the tailing absorption of reactant using Origin 8.6 software (OriginLab). After deconvolution, concentrations were obtained from a calibration curve constructed from known mixtures of reactant and product.

[2] = Preparative photolysis with Pyrex-filtered Hanovia medium pressure mercury lamp, products quantified by NMR; assay type: physicochemical; details: for chemical yield of leaving group expulsion / photoproduct formation in preparative photolysis: N2 saturated aqueous 100 mM phosphate buffer (pH 7) in CH3CN, NMR integration
Method: as §1
Similarly, preparative photolysis of […] acid 9 (LG^−=Cl^−) in N2 saturated 75% H2O in CH3CN containing 100 mM phosphate buffer (pH 7) gave the single regioisomeric photoproduct 27 in 98% yield by NMR integration, as above for 8 (LG^−=Cl^−). The regiospecificity was again established by 600 MHz ^1H NMR COSY. […] Photolysis of acid 9 (LG^−=PhS^−, HS^−, PhCH2S^−) under the same conditions as 8 (LG^−=Cl^−) also gave photoproduct 27 in 98-100% yields upon expulsion of these thiolate leaving groups. For acid 9 (LG^−=PhCH2S^−) the released benzyl thiol was quantified in photolyses of 4.5×10^−3 M solutions of 35% D2O in CD3CN containing phosphate buffer (as above) contained in NMR tubes. Yields were 96% thiol and 99% of 27 at 100% conversion of reactant by ^1H NMR spectroscopy. Very similar results were found when DMSO-d6 was the photolysis solvent.
The regiospecific formation of 26 or 27 in the preparative photolyses of ester 8 or acids 9 requires the presence of the ester and carboxylic acid substituents attached to the C-6 position of the benzothiophene ring system of the reactants. In contrast, photolyses of the unsubstituted benzothiophene ring system 7 (LG^−=Cl^−) in 16% water containing 100 mM phosphate buffer in CH3CN gave both regioisomeric photoproducts 30 and 31 as a 42:58 mixture, respectively, in 100% yield according to 400 MHz ^1H NMR spectroscopy (Scheme 6).
To determine whether a “heavy atom effect” promoted intersystem crossing of the singlet excited state to the triplet excited state, work focused upon the C-7 bromide of thioxanthone ester 10 (LG^−=Cl^−). Preparative photolysis of ester 10 in N2 saturated 19% H2O in CH3CN containing 100 mM phosphate buffer (pH 7), as above for ester 8 (LG^−=Cl^−), exclusively gave regioisomer 32 in 99% yield, and 33 was not observed by ^1H NMR spectroscopy of the photolysate (Scheme 7).
A 0.010 M solution of 8 (LG^−=Cl^−) in N2 saturated 17% H2O in CH3CN containing 100 mM phosphate buffer at pH 7 was irradiated with a 450 W Hanovia medium pressure mercury lamp with a Pyrex filter for 90 min. The photoproduct was isolated by filtration. The photoproduct was washed with H2O and a small amount of CHCl3 and dried under vacuum. The product was a yellow powder, mp >300° C. […] A COSY spectrum in d6-DMSO was obtained (see Supporting Information).
A 0.010 M solution of 13 (LG^−=Cl^−) in N2 saturated 75% H2O in CH3CN containing 100 mM phosphate buffer at pH 7 was irradiated with a 450 W Hanovia medium pressure mercury lamp with Pyrex filter for 90 min. The photolysate was acidified to pH 2 with conc. HCl to precipitate the photoproduct carboxylic acid 27. The photoproduct was obtained by filtration, washing with H2O, and drying under vacuum, as a yellow powder, mp >300° C.
A 0.010 M solution of 7 (LG^−=Cl^−) in N2 saturated 17% H2O in CH3CN containing 100 mM phosphate buffer at pH 7 was irradiated with a 450 W Hanovia medium pressure mercury lamp with a Pyrex filter for 90 min. The photoproduct was isolated by filtration as a mixture of two isomers, 30, 31. The mixture of product isomers was dissolved in hot DMSO. Solid photoproduct isomer 31 was obtained upon cooling of the hot DMSO and filtration. Photoproduct isomer 31 was washed with water and methanol and dried under vacuum to obtain 31 as floppy powder, mp >300° C. Solid photoproduct isomer 30 was obtained upon addition of water to the above DMSO filtrate by filtration, after washing with water and methanol. The photoproduct isomer 30 was crystallized from CHCl3 to give a yellow crystalline solid, mp 271-273° C. […]

[3] = Photolysis with 120 W sunlamp for 72 h; assay type: physicochemical; details: gives exclusively product 26 or 27
Method: The photolyses of ester 8 (LG^−=Cl^−) and acids 9 (LG^−=Cl^−, PhS^−, HS^−, PhCH2S) were repeated with a 120 W sunlamp for 72 h under otherwise the same conditions described above for the Hanovia runs.

Absorption spectra = assay type: physicochemical; details: for ε at absorption maximum: 385 nm; for ε at absorption maximum / absorption maximum: aqueous dioxane or acetonitrile
Method: as §1
Photoproduct 26 was identified by ^1H NMR spectroscopy and elemental analysis. […] Regioisomer 28 would have shown only four vicinal couplings in the COSY spectrum. […] The compound was obtainable only as a powder, despite repeated attempts to obtain crystals for structure determination using X-ray diffraction.

[4] = Stern-Volmer quenching of the photoreaction by piperylene; assay type: physicochemical
Excerpt: In air-saturated solution quantum yields for ester 8 (LG^−=Cl^−) decreased to Φ=0.019. […] Furthermore, quenching by 9.2-37×10^−[…] piperylene as quencher Q gave a slope kqτ=7.03×10^4 M^−1 for a Stern-Volmer plot Φ°/Φ vs. [Q](data not shown). If it is assumed that kq=ca. 10^10 M^−1 s^−1, then τ would be ca. 7 μs.

[5] = cited from earlier work
[6] = 4.5×10^−3 M in 35% D2O in CD3CN containing phosphate buffer, 100% conversion, 1H NMR

Molecule	quantum yield Φ for formation of 27 ([1]; 390 nm)	leaving group expulsion with sunlamp [3]	melting point [°C]	product quantum yield Φ ([1]; 390 nm)	chemical yield of leaving group expulsion / photoproduct formation in preparative photolysis [2]	also measured
COC(=O)c1ccc2c(Cl)c(C(=O)N(C)c3ccc4sc5ccccc5c(=O)c4c3)sc2c1 [8 (LG^−=Cl^−), 3-chloro-2-[methyl-(9-oxo-9H-thiozanthen-2-yl)-carbamoyl]-benzo[b]thiophene-6-carboxylic acid methyl ester]		essentially quantitatively		0.039	nearly quantitative	quantum yield Φ for photoproduct 26 ([1]; 390 nm, reactant concentration 1.0×10^−4 M, photoproduct quantified by absorption spectroscopy): 0.037; quantum yield Φ ([1]; air-saturated solution): 0.019; quantum yields for reaction (photorelease of leaving group), overall ([1]; depending on LG^− basicity or reactant concentration): 0.037-0.039; ε at absorption maximum (Absorption spectra): 5600 M⁻¹ cm⁻¹; absorption maximum (Absorption spectra): 385 nm; Stern-Volmer slope kqτ ([4]; 9.2-37×10^−6 M piperylene as quencher, plot Φ°/Φ vs. [Q]): 70300 M⁻¹; triplet excited state lifetime τ ([4]; assuming kq=ca. 10^10 M^−1 s^−1): ca. 7 μs
O=c1c2ccccc2sc2ccccc12 [thioxanthone]						triplet lifetime ([5]; in CH3CN): 6.7 μs; triplet yield ([5]; nonpolar hydrocarbon solvent (cyclohexane)): 0.85; triplet lifetime ([5]; polar protic solvent (methanol)): 13.3 μs; triplet yield ([5]; polar, protic solvent (CH3OH)): 0.56
CN(C(=O)c1sc2ccccc2c1Cl)c1ccc2sc3ccccc3c(=O)c2c1 [7 (LG^−=Cl^−), 3-chloro-benzo[b]thiophene-2-carboxylic acid methyl-(9-oxo-9H-thioxanthen-2-yl)amide]				0.069	100%	
CN(C(=O)c1sc2cc(C(=O)O)ccc2c1Cl)c1ccc2sc3ccccc3c(=O)c2c1 [9 (LG^−=Cl^−), 3-chloro-2-[methyl-(9-oxo-9H-thioxanthen-2-yl)-carbamoyl]-benzo[b]thiophene-6-carboxylic acid]	0.034	essentially quantitatively	286 to 287		98%	ε at absorption maximum (Absorption spectra): 4200 M⁻¹ cm⁻¹; absorption maximum (Absorption spectra): 385 nm
6-methylcarboxylate-[1]benzothiopheno[2,3-c]benzo[a]anthracene-4-methyl-4H-7-thia-4-aza-3,12-dione [compound 26]						ε at long wavelength maximum (Absorption spectra; 432 nm, aq dioxane containing phosphate buffer): 10300 M⁻¹ cm⁻¹; long wavelength absorption maximum (Absorption spectra; aq dioxane containing phosphate buffer): 432 nm

Continued, in another order:

quantum yield Φ for formation of 27 ([1]; 390 nm)	leaving group expulsion with sunlamp [3]	melting point [°C]	product quantum yield Φ ([1]; 390 nm)	chemical yield of leaving group expulsion / photoproduct formation in preparative photolysis [2]	Molecule	also measured
0.011	essentially quantitatively	151 to 152			CN(C(=O)c1sc2cc(C(=O)O)ccc2c1SCc1ccccc1)c1ccc2sc3ccccc3c(=O)c2c1 [9 (LG^−=PhCH2S^−), 3-benzylsulfanyl-2-[methyl-(9-oxo-9H-thioxanthen-2-yl)-carbamoyl]-benzo[b]thiophene-6-carboxylic acid]	yield of 27 [2, 6]: 99%; yield of released benzyl thiol [2, 6]: 96%
		237 to 239	0.053	99%	COC(=O)c1ccc2c(Cl)c(C(=O)N(C)c3ccc4sc5ccc(Br)cc5c(=O)c4c3)sc2c1 [10 (LG^−=Cl^−), 2-[(7-bromo-9-oxo-9H-thioxanthen-2-yl)-methyl-carbamoyl]-3-chloro-benzo[b]thiophene-6-carboxylic acid methyl ester]	quantum yield higher than Φ=0.039 of ester 8 (LG^−=Cl^−) ([1]; bromo ester 10 vs ester 8): 38%
0.0079	essentially quantitatively	210 to 212			CN(C(=O)c1sc2cc(C(=O)O)ccc2c1S)c1ccc2sc3ccccc3c(=O)c2c1 [9 (LG^−=HS^−), 3-mercapto-2-[methyl-(9-oxo-9H-thioxanthen-2-yl)-carbamoyl]-benzo[b]thiophene-6-carboxylic acid]	
0.017	essentially quantitatively	278 to 279			CN(C(=O)c1sc2cc(C(=O)O)ccc2c1Sc1ccccc1)c1ccc2sc3ccccc3c(=O)c2c1 [9 (LG^−=PhS^−), 2-[methyl-(9-oxo-9H-thioxanthen-2-yl)-carbamoyl]-3-phenylsulfanyl-benzo[b]thiophene-6-carboxylic acid]	

— patent US8703970B2, “Compounds having photochemically removable protecting groups based on an electrocyclic reaction between a chromophore attached via an anilide group to a benzothiophene ring” (Marquette University, priority 2012, dated 2014)
